# Legend:
# [1] = Human microsomal stability analysis; format: in vitro ADME; details: human liver microsomes
# B. subtilis [2] = experiment: Bacterial Cytological Profiling; format: cell-based, Bacillus subtilis; details: for cell shape (BCP) in media containing MSM: LB-MSM, two hours, 4i 4 × MIC, oxacillin 5×MIC, D-cycloserine 1×MIC
# [3] = test system: drug-resistant S. aureus clinical isolates; experiment: Anti-MRSA activity over the panel of S. aureus clinical isolates; format: cell-based, Staphylococcus aureus; details: against both MRSA and VRSA
# MRSA USA400 = experiment: Time-kill assay; details: 4 × MIC, MRSA USA400, 37 °C, 24-hour incubation
# [4] = test system: UDP-N-acetylmuramyl pentapeptide in S. aureus NRS107 (RN4220); experiment: Detection of final soluble cell wall precursor by HPLC/MS; format: cell-based, Staphylococcus aureus; details: 10 × MIC, 30 minutes
# [5] = test system: MRSA USA400 inside infected murine macrophage (J774) cells; experiment: Eradication of intracellular MRSA in infected macrophages; details: 16 μg/mL, J774 cells infected with MRSA USA400
# HaCaT cells = experiment: MTS cytotoxicity analysis against human keratinocytes; format: cell-based; details: MTS assay, tested at 8, 16, 32, 64 μg/mL
# MRSA USA300 = experiment: In vivo antibacterial activity in MRSA-infected C. elegans; set-up: species or system Caenorhabditis elegans; details: for reduction of the burden of MRSA USA300: C. elegans AU37, 20 μg/mL, 18 hours treatment
# J774 cells = experiment: MTS cytotoxicity analysis against murine macrophages; format: cell-based; details: MTS assay, tested at 8, 16, 32, 64 μg/mL
# VRSA4 = experiment: MIC/MBC broth microdilution; format: cell-based; details: Staphylococcus aureus
# [6] = test system: S. aureus NRS107 (RN4220); experiment: microbe, parasite or virus in culture; format: cell-based; details: Staphylococcus aureus
# VRSA10 = experiment: MIC/MBC broth microdilution; format: cell-based; details: Staphylococcus aureus
# B. subtilis [7] = experiment: MIC against B. subtilis; format: cell-based; details: Bacillus subtilis
# [8] = pH 7.4, NADPH-Free CLint, without NADPH
compound,measurement,setting,value
"CCCCc1ccc(-c2nc(C)c(/C(C)=N/NC(=N)N)s2)cc1 [Compound 1a, reference compound]",microsomal CLint,[1]; [8],< 9.6 µL/min/mg
"Cc1nc(-c2ccc3ccccc3c2)sc1-c1cnc(NC(=N)N)s1 [Compound 4i, 1-(4′-Methyl-2′-(naphthalen-2-yl)-[5,5′-bithiazol]-2-yl)guanidine]",effect on cells (BCP),"B. subtilis [2]; 5 × MIC, two hours of exposure",lysed
same,cell shape (BCP) in media containing MSM,B. subtilis [2],misshapen and formed small bulges
same,MBC values relative to MIC values,[3],matched or were two-fold higher
same,time to completely eliminate MRSA cells,MRSA USA400,four
same,peak of UDP-N-acetylmuramyl pentapeptide (accumulation),[4],noticeable increase
same,reduction of MRSA CFU/mL in infected macrophages,[5]; four hours of treatment,unable to reduce
same,concentration up to which not toxic,HaCaT cells,32000 ng/mL
same,microsomal CLint,"[1]; pH 7.4, NADPH-Dependent CLint, with NADPH",17.3 µL/min/mg
same,microsomal CLint,[1]; [8],< 9.6 µL/min/mg
same,reduction of the burden of MRSA USA300,MRSA USA300,approximately 30%
same,reduction of MRSA burden relative to lead compound 1c and vancomycin,"MRSA USA300; C. elegans, 20 μg/mL, 18 hours, same experimental conditions",three
same,concentration up to which non-toxic,J774 cells,16000 ng/mL
CC(=O)NC[C@H]1CN(c2ccc(N3CCOCC3)c(F)c2)C(=O)O1 [Linezolid],MIC,VRSA4,2 µg/mL
same,MIC,[6],2 µg/mL
same,MIC,VRSA10,2 µg/mL
"CN[C@H](CC(C)C)C(=O)N[C@H]1C(=O)N[C@@H](CC(N)=O)C(=O)N[C@H]2C(=O)N[C@H]3C(=O)N[C@H](C(=O)N[C@H](C(=O)O)c4cc(O)cc(O)c4-c4cc3ccc4O)[C@H](O)c3ccc(c(Cl)c3)Oc3cc2cc(c3O[C@@H]2O[C@H](CO)[C@@H](O)[C@H](O)[C@H]2O[C@H]2C[C@](C)(N)[C@H](O)[C@H](C)O2)Oc2ccc(cc2Cl)[C@H]1O [Vancomycin, reference compound]",peak of UDP-N-acetylmuramyl pentapeptide (accumulation),[4],noticeable increase
same,reduction of MRSA CFU in infected macrophages,[5]; 24 hours of treatment,not able to reduce
same,reduction of the burden of MRSA USA300,MRSA USA300,low reduction
Cc1onc(-c2ccccc2Cl)c1C(=O)N[C@@H]1C(=O)N2[C@@H]1SC(C)(C)[C@@H]2C(=O)O [cloxacillin],MIC,B. subtilis [7],0.47 µg/mL
"Cc1onc(-c2ccccc2)c1C(=O)N[C@@H]1C(=O)N2[C@@H]1SC(C)(C)[C@@H]2C(=O)O [oxacillin, reference compound]",cell shape (BCP) in media containing MSM,B. subtilis [2],large bulges and misshapen cells
N[C@@H]1CONC1=O [ᴅ-cycloserine],MIC,B. subtilis [7],37.5 µg/mL

# — PMC5911928 (European journal of medicinal chemistry, 2017)
